The test system of data set [1] is genome-length HCV RNA replication in OR6 cells. Nature of the data set: Genome-length HCV replication assay in OR6 cells (Renilla luciferase reporter). In kind it is cell-based, Hepatitis C virus (HCV). The following applies: luciferase activity. From the text:
Briefly, the cells described in Patent Literature 1 used for the screening were as follows: That is, the cells were those obtained by introducing, into Oc cells (FERM P-20517) originated from a human hepatocarcinoma cell line HuH-7, a plasmid containing full length of HCV genome, luciferase gene as a reporter gene and neomycin-resistant gene (neomycin phosphotransferase gene) as a selection marker gene. More specifically, the cells (OR6 cells) were the Oc cells (FERM P-20517) originated from a human hepatocarcinoma cell line HuH-7, into which a plasmid having an RNA containing, from the 5′-end, internal ribosome entry site (IRES) sequence of HCV, luciferase gene, neomycin phosphotransferase gene, IRES sequence originated from encephalomyocarditis virus (EMCV), HCV open reading frame sequence and HCV 3′ untranslated sequence. After culturing the OR6 cells in a culture medium containing a test compound whose anti-viral activity against HCV (that is, therapeutic effect against hepatitis C) is to be examined, the luciferase activity of the cells is measured. […] Therefore, the lower the luciferase activity measured, the higher the anti-HCV activity. In Patent Literature 1, it was experimentally confirmed that correlation between the luciferase activity measured and the amount of HCV RNA is very high, so that it has been confirmed that this system has a high reliability. […]
In general terms: In a reporter assay the amount or activity of a reporter protein is the signal.

The subject of data set [2] is Renilla luciferase driven by EMCV IRES in OR6c cells. Nature of the data set: Control transfection: EMCV IRES-driven Renilla luciferase plasmid pEMCV-RL in cured OR6c cells. The note with it: cured OR6c cells transfected with pEMCV-RL, HU added 24 h after transfection, 72 h culture. In kind it is cell-based, human. How it is done:
In accordance with Patent Literature 1, a plasmid encoding Renilla luciferase driven by the internal ribosome entry site (IRES) of encephalomyocarditis virus (EMCV) was transfected into OR6c cells which were OR6 cells cured by IFN, with FuGENE6 reagent (produced by Roche Diagnostics), and 24 hours after transfection, the cells were treated with various concentrations of HU and cultured for 72 hours.

Another data set relates to OR6 cells. Nature of the data set: Cell viability, viable cell count after trypan blue staining. In kind it is cell-based, human. The note with it: 72 h, HU at each concentration up to 100 μmol/L. How it is done: In order to examine the cytotoxic effects of HU on OR6 cells, the cells were seeded onto dishes of diameter 95 mm at a density of 400,000 cells per dish, and cultured for 72 hours after adding HU to a concentration of 0, 50, 100, and 150 μmol/L, respectively. The number of viable cells was then counted by a hematocytometer after staining with trypan blue dye.

The next data set has as its system HCV RNA (virus level). Nature of the data set: Clinical test in patients with intractable hepatitis C, serum HCV RNA by real-time PCR (TaqMan). In kind it is in vivo, human. The following applies: oral 1500 mg/day for 4 weeks. As to the method:
Serum HCV RNA level (log IU/ml) was measured every week from before the administration to the end of the therapy by the real-time detection PCR method using TaqMan (trade name) probe.
(In general: Real-time PCR tracks product formation cycle by cycle.)

The mark [3] stands for this setting: serum HCV RNA (log IU/ml), 12 patients.

For hydroxyurea [HU], in data set [1] (72-h treatment, HU up to 150 μmol/L, read-out: 50% replication inhibition concentration), the IC50 was 60 µM. Further, the “inhibition of Renilla fluorescence (control plasmid)” value in data set [2] is given as “did not inhibit”. In addition, in the data set on OR6 cells, the “number of viable cells compared to untreated cells” value was “no significant difference”. Besides, in the data set with HCV RNA (virus level) (9 out of 12 patients, intractable hepatitis C, serogroup 1, high virus level), the “patients with decrease in the virus level (HCV RNA)” value came to 75%. Moreover, in the data set on HCV RNA (virus level) (setting [3]), the “decrease in the virus level, average” value came to 0.22 Log and the “decrease in the virus level, maximum” value is recorded as 0.37 Log.

With interferon α, in data set [1] (72 h treatment), the 50% inhibition concentration stood at 1.2 IU/mL.
